Measurements as given in patent publication US10745384B2, “Indazole derivatives as αv integrin antagonists” (BRISTOL-MYERS SQUIBB COMPANY, priority 2016, dated 2020).
pIC50: −log10 of the molar value. Where a name gives a salt, the structure may show the parent alone.

target: T1, human αVβ6 (Homo sapiens, UniProt P06756+P18564); assay: human αVβ6 HTRF binding assay; conditions: recombinant human αVβ6 integrin, FITC-conjugated fibronectin
T1 construct: purchased R & D systems 3817-AV
Outline: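 HTRF binding in 20 mM Tris pH 7.4 with 1 mM MgCl2, 1 mM MnCl2, 0.01% Tween 20 and 0.01% BSA. For αVβ6, biotinylated integrin (1.25 nM) and FITC-fibronectin (5 nM) were incubated 1 h at RT, then streptavidin-terbium (0.625 nM) was added overnight in the dark. An SPA-based fibronectin binding format was an alternative.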

T1 sequence (P06756 31-992 limits assumed): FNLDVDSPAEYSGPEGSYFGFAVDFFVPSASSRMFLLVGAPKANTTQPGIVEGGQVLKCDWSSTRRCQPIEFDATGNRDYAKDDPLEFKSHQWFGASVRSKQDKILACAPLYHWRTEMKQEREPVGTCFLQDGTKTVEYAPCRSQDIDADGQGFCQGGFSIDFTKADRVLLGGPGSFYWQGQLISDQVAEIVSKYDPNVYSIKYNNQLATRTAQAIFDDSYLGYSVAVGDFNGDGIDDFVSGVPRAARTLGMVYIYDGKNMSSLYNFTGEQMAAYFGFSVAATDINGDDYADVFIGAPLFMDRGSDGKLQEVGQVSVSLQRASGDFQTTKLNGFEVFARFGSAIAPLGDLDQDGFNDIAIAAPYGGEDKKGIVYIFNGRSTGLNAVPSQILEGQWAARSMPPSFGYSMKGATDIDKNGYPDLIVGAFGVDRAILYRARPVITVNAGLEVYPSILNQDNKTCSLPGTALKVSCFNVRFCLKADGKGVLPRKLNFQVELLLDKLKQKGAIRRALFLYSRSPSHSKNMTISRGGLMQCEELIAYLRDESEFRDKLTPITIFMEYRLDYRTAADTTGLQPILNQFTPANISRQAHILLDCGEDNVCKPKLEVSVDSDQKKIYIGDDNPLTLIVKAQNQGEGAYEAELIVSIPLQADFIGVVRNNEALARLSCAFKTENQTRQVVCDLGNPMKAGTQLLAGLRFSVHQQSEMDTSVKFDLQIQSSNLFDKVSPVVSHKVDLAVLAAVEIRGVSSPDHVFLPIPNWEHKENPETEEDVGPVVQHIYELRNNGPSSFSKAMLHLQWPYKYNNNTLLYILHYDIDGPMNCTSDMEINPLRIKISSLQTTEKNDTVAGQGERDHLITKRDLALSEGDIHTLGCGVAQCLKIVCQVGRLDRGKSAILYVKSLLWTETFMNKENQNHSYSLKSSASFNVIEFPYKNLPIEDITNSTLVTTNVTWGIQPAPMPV
T1 sequence (P18564 22-707 limits assumed): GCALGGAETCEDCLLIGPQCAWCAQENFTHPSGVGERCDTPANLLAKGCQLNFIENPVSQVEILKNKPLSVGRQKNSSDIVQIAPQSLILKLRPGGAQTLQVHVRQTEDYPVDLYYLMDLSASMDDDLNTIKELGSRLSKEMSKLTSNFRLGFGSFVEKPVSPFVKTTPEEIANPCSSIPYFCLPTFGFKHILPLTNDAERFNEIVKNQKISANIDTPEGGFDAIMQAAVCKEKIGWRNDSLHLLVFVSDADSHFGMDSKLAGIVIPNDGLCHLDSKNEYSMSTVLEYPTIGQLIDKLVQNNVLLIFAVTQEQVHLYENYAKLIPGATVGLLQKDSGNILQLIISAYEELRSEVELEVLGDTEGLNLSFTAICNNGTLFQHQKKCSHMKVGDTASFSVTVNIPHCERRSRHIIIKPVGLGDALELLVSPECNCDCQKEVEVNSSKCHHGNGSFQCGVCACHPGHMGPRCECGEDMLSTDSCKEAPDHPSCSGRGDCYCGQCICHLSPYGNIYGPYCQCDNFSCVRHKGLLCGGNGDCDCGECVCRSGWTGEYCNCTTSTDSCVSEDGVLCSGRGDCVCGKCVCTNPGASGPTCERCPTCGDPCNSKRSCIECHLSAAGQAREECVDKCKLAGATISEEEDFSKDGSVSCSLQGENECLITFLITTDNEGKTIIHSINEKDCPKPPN

Compared with Cn1cc(-c2cncc(C(CC(=O)O)n3ncc4cc(OCCc5ccc6c(n5)NCCC6)ccc43)c2)cn1 (stereo not shown) [Example 143, 3-(5-(1-methyl-1H-pyrazol-4-yl)pyridin-3-yl)-3-(5-(2-(5,6,7,8-tetrahydro-1,8-naphthyridin-2-yl)ethoxy)-1H-indazol-1-yl)propanoic acid], CC(C)(O)c1cncc([C@@H](CC(=O)O)n2ncc3cc(OCCc4ccc5c(n4)NCCC5)ccc32)c1 [Example 145, (R)-3-(5-(2-hydroxypropan-2-yl)pyridin-3-yl)-3-(5-(2-(5,6,7,8-tetrahydro-1,8-naphthyridin-2-yl)ethoxy)-1H-indazol-1-yl)propanoic acid] is 2.29 log units lower in pIC50: 8.01 for the first, 5.72 for the second. The first is the more potent here.

COC(=O)NCc1cncc(C(CC(=O)O)n2ncc3cc(OCCc4ccc5c(n4)NCCC5)ccc32)c1 (stereo not shown) [Example 167, 3-(5-(((Methoxycarbonyl)amino)methyl)pyridin-3-yl)-3-(5-(2-(5,6,7,8-tetrahydro-1,8-naphthyridin-2-yl)ethoxy)-1H-indazol-1-yl)propanoic acid] and CN(C)Cc1cncc(C(CC(=O)O)n2ncc3cc(OCCc4ccc5c(n4)NCCC5)ccc32)c1 (stereo not shown) [Example 105, 3-(5-((Dimethylamino)methyl)pyridin-3-yl)-3-(5-(2-(5,6,7,8-tetrahydro-1,8-naphthyridin-2-yl)ethoxy)-1H-indazol-1-yl)propanoic acid] are within 0.2 log units of each other in pIC50: 7.82 for the first, 8.00 for the second.

First: O=C(O)CC(c1cncc(N2CCOCC2)n1)n1ncc2cc(OCCc3ccc4c(n3)NCCC4)ccc21 (stereo not shown) [Example 142, 3-(6-morpholinopyrazin-2-yl)-3-(5-(2-(5,6,7,8-tetrahydro-1,8-naphthyridin-2-yl)ethoxy)-1H-indazol-1-yl)propanoic acid]
Second: O=C(O)CC(c1cccc(N2CCOCC2)c1)n1ncc2cc(OCCc3ccc4c(n3)NCCC4)ccc21 (stereo not shown) [Example 58, 3-(3-Morpholinophenyl)-3-(5-(2-(5,6,7,8-tetrahydro-1,8-naphthyridin-2-yl)ethoxy)-1H-indazol-1-yl)propanoic acid, TFA]
The pIC50 of the first is 1.33 log units lower: 7.44 for the first, 8.77 for the second. The second is the more potent here.

Compared with COc1ccc(C(CC(=O)O)n2ncc3nc(OCCc4ccc5c(n4)NCCC5)ccc32)cn1 (stereo not shown) [Example 11, 3-(6-Methoxypyridin-3-yl)-3-(5-(2-(5,6,7,8-tetrahydro-1,8-naphthyridin-2-yl)ethoxy)pyrazolo[4,3-b]pyridin-1-yl)propanoic acid], COc1ccc(C(CC(=O)O)n2ncc3c(OCCc4ccc5c(n4)NCCC5)cccc32)cn1 (stereo not shown) [Example 3, 3-(6-Methoxypyridin-3-yl)-3-(4-(2-(5,6,7,8-tetrahydro-1,8-naphthyridin-2-yl)ethoxy)-1H-indazol-1-yl)propanoic acid] is 1.28 log units lower in pIC50: 6.92 for the first, 5.64 for the second. The first is the more potent here.

Going from CN(C)Cc1cccc(C(CC(=O)O)n2ncc3cc(CCc4ccc5c(n4)NCCC5)ccc32)c1 (stereo not shown) [Example 26, 3-(3-((Dimethylamino)methyl)phenyl)-3-(5-(2-(5,6,7,8-tetrahydro-1,8-naphthyridin-2-yl)ethyl)-1H-indazol-1-yl)propanoic acid] to CN(C)C(=O)c1cccc(C(CC(=O)O)n2ncc3cc(CCCc4ccc5c(n4)NCCC5)ccc32)c1 (stereo not shown) [Example 23, 3-(3-(Dimethylcarbamoyl)phenyl)-3-(5-(3-(5,6,7,8-tetrahydro-1,8-naphthyridin-2-yl)propyl)-1H-indazol-1-yl)propanoic acid], the pIC50 rises from 6.92 to 7.21 (0.29 log units).

Compared with O=C(O)CC(c1ccnc(N2CCCC2=O)c1)n1ncc2cc(OCCc3ccc4c(n3)NCCC4)ccc21 (stereo not shown) [Example 93, 3-(2-(2-Oxopyrrolidin-1-yl)pyridin-4-yl)-3-(5-(2-(5,6,7,8-tetrahydro-1,8-naphthyridin-2-yl)ethoxy)-1H-indazol-1-yl)propanoic acid, TFA], O=C(O)C[C@H](c1cccc(N2CCCC2=O)c1)n1ncc2cc(OCCc3ccc4c(n3)NCCC4)ccc21 [Example 85, (R)-3-(3-(2-Oxopyrrolidin-1-yl)phenyl)-3-(5-(2-(5,6,7,8-tetrahydro-1,8-naphthyridin-2-yl)ethoxy)-1H-indazol-1-yl)propanoic acid, TFA] is 0.51 log units higher in pIC50: 8.09 for the first, 8.60 for the second.

Going from CN(C)C(=O)c1cccc([C@H](CC(=O)O)n2ncc3cc(OCCc4ccc5c(n4)NCCC5)ccc32)c1 [Example 38, (S)-3-(3-(Dimethylcarbamoyl)phenyl)-3-(5-(2-(5,6,7,8-tetrahydro-1,8-naphthyridin-2-yl)ethoxy)-1H-indazol-1-yl)propanoic acid] to Cn1ccc(C(CC(=O)O)n2ncc3cc(OCCc4ccc5c(n4)NCCC5)ccc32)cc1=O (stereo not shown) [Example 71, 3-(1-Methyl-2-oxo-1,2-dihydropyridin-4-yl)-3-(5-(2-(5,6,7,8-tetrahydro-1,8-naphthyridin-2-yl)ethoxy)-1H-indazol-1-yl)propanoic acid, TFA], the pIC50 falls from 8.38 to 7.19 (1.19 log units).

Going from COc1ccc(C(CC(=O)O)n2nc(C)c3cc(OCCc4ccc5c(n4)NCCC5)ccc32)cn1 (stereo not shown) [Example 70, 3-(6-Methoxypyridin-3-yl)-3-(3-methyl-5-(2-(5,6,7,8-tetrahydro-1,8-naphthyridin-2-yl)ethoxy)-1H-indazol-1-yl)propanoic acid] to COc1ccc(C(CC(=O)O)n2ncc3cc(OCCc4ccc5c(n4)NCCC5)ccc32)cc1F (stereo not shown) [Example 44, 3-(3-Fluoro-4-methoxyphenyl)-3-(5-(2-(5,6,7,8-tetrahydro-1,8-naphthyridin-2-yl)ethoxy)-1H-indazol-1-yl)propanoic acid, TFA], the pIC50 rises from 6.02 to 8.06 (2.04 log units). The second is the more potent here.

First: O=C(O)C[C@H](c1cncc(C2OCCO2)c1)n1ncc2cc(OCCc3ccc4c(n3)NCCC4)ccc21 [Example 138, (R)-3-(5-(1,3-dioxolan-2-yl)pyridin-3-yl)-3-(5-(2-(5,6,7,8-tetrahydro-1,8-naphthyridin-2-yl)ethoxy)-1H-indazol-1-yl)propanoic acid]
Second: CS(=O)(=O)c1cncc([C@H](CC(=O)O)n2ncc3cc(OCCc4ccc5c(n4)NCCC5)ccc32)c1 [Example 166, (S)-3-(5-(methylsulfonyl)pyridin-3-yl)-3-(5-(2-(5,6,7,8-tetrahydro-1,8-naphthyridin-2-yl)ethoxy)-1H-indazol-1-yl)propanoic acid]
The pIC50 of the first is 0.91 log units lower: 7.37 for the first, 8.28 for the second. The second is the more potent here.

O=C(O)CC(c1cnn(-c2ccncc2)c1)n1ncc2cc(OCCc3ccc4c(n3)NCCC4)ccc21 (stereo not shown) [Example 135, 3-(1-(Pyridin-4-yl)-1H-pyrazol-4-yl)-3-(5-(2-(5,6,7,8-tetrahydro-1,8-naphthyridin-2-yl)ethoxy)-1H-indazol-1-yl)propanoic acid] and Cn1cnc2ncc(C(CC(=O)O)n3ncc4cc(OCCc5ccc6c(n5)NCCC6)ccc43)cc21 (stereo not shown) [Example 140, 3-(1-methyl-1H-imidazo[4,5-b]pyridin-6-yl)-3-(5-(2-(5,6,7,8-tetrahydro-1,8-naphthyridin-2-yl)ethoxy)-1H-indazol-1-yl)propanoic acid] are within 0.2 log units of each other in pIC50: 8.42 for the first, 8.24 for the second.

Compared with O=C(O)C[C@H](c1cncc(N2CCCC2=O)c1)n1ncc2cc(OCCc3ccc4c(n3)NCCC4)ccc21 [Example 150, (R)-3-(5-(2-oxopyrrolidin-1-yl)pyridin-3-yl)-3-(5-(2-(5,6,7,8-tetrahydro-1,8-naphthyridin-2-yl)ethoxy)-1H-indazol-1-yl)propanoic acid], O=C(O)CC(c1cncc(N2CCCC2)c1)n1ncc2cc(OCCc3ccc4c(n3)NCCC4)ccc21 (stereo not shown) [Example 127, 3-(5-(Pyrrolidin-1-yl)pyridin-3-yl)-3-(5-(2-(5,6,7,8-tetrahydro-1,8-naphthyridin-2-yl)ethoxy)-1H-indazol-1-yl)propanoic acid, 3 TFA] is 1.25 log units higher in pIC50: 6.96 for the first, 8.21 for the second. The second is the more potent here.
